Reference: US20110201818A1, “POLO-LIKE KINASE INHIBITORS” (TAKEDA PHARMACEUTICAL COMPANY LIMITED, priority 2007, published 2011)

The compounds below were run against T1, human PLK1 (Homo sapiens, UniProt P53350) (assay: PLK1 in vitro enzymatic activity assay (phosphorylation of alpha casein by recombinant PLK1)). Conditions: recombinant FLAG-tagged PLK1, alpha casein substrate, 500 nmol/L ATP, 40 min at room temperature; read-out: pIC50 (PLK1) (converted).
T1 construct: FLAG (DYKDDDDK) (N); made in house; host or cells: Sf21 insect cells, recombinant baculovirus (pFASTBAC1, Bac-to-Bac)
T1 sequence (P53350 with tags, fused parts or gaps): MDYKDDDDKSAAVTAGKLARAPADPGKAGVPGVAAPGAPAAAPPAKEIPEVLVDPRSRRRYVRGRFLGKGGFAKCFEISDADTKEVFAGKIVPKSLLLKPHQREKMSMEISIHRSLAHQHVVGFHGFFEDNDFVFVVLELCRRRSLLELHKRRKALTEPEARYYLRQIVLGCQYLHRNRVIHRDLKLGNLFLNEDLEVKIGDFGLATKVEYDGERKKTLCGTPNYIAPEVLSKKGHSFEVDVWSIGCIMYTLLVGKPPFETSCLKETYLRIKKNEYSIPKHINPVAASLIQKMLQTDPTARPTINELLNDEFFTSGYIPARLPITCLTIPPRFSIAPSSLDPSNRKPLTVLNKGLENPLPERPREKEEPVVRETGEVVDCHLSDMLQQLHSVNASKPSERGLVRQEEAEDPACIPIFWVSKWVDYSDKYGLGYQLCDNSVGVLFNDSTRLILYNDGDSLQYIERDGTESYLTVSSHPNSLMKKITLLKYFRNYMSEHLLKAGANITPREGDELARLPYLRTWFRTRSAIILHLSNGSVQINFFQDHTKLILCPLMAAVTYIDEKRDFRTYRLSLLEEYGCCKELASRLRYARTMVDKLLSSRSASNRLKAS
Assay type: biochemical
Method: PCR was performed using the vector as a template. […] After XbaI and XhoI digestion of the PCR product, the fragment was subcloned into pFASTBAC1 (Invitrogen, USA). Recombinant baculoviruses were prepared according to the procedure of the Bac-to-Bac baculovirus expression system (Invitrogen, USA). Sf21 cells were purchased from Invitrogen and grown in Sf-900 II SFM medium containing 10% fetal bovine serum, 50 μg/mL gentamicin and 0.1% pluronic F-68 (Invitrogen, USA) at 28° C. For preparation of PLK1 enzyme, Sf21 cells were infected with recombinant baculoviruses and cultured at 28° C. for 72 h.
The inhibition of PLK1 by the compounds was determined with the following assay that measures the phosphorylation of alpha casein by recombinant PLK1. Kinase reactions were performed at room temperature for 40 min in the kinase reaction buffer (25 mmol/L HEPES, pH 7.5, 10 mmol/L magnesium acetate, 1 mmol/L dithiothreitol) containing 50 ng PLK1 enzyme, 0.1 μCi [γ-^32P]ATP, 500 nmol/L ATP and 3 μg alpha casein (MP Biomedicals Inc., USA) in a final volume of 50 μL. The incubation was terminated by the addition of 10% trichloroacetic acid (Wako, Japan). Phosphorylated proteins were filtrated in GF/C filter plates (Packard, USA) with a Cell harvester (Packard, USA) and washed out free [γ-^32P]-ATP with 250 mmol/L phosphoric acid. Then, the plates were air dried for 60 min at 45° C., followed by the addition of 20 μL of MicroScint-O (Packard, USA). The radioactivity was counted by a Top-count scintillation counter (Packard, USA).

| IC50 [nM] | Structure (SMILES) |
| --- | --- |
| ≤ 2 | COc1cc(C(=O)N[C@H]2CCCN(C)C2)ccc1Nc1ncc2c(n1)N(C1CCCCC1)CC(F)(F)C(=O)N2C [Compound 74, (S)-4-(9-cyclohexyl-7,7-difluoro-5-methyl-6-oxo-6,7,8,9-tetrahydro-5H-pyrimido[4,5-b][1,4]diazepin-2-ylamino)-3-methoxy-N-(1-methylpiperidin-3-yl)benzamide] |
| > 2 | COc1cc(CO)ccc1Nc1ncc2c(n1)N(C1CCCC1)CC(F)(F)CN2C [Compound 137, (4-(9-cyclopentyl-7,7-difluoro-5-methyl-6,7,8,9-tetrahydro-5H-pyrimido[4,5-b][1,4]diazepin-2-ylamino)-3-methoxyphenyl)methanol] |
| ≤ 2 | COc1cc(C(=O)NC2CN(C)C2)ccc1Nc1ncc2c(n1)N(C1CCCCC1)CC(C)(F)C(=O)N2C (stereo not drawn) [Compound 90, 4-(9-Cyclohexyl-7-fluoro-5,7-dimethyl-6-oxo-6,7,8,9-tetrahydro-5H-pyrimido[4,5-b][1,4]diazepin-2-ylamino)-3-methoxy-N-(1-methylazetidin-3-yl)benzamide] |
| ≤ 2 | COc1cc(C(=O)NC2CN(C3CCCC3)C2)c(F)cc1Nc1ncc2c(n1)N(C1CCCC1)CC(F)(F)C(=O)N2C [Compound 133, 4-(9-cyclopentyl-7,7-difluoro-5-methyl-6-oxo-6,7,8,9-tetrahydro-5H-pyrimido[4,5-b][1,4]diazepin-2-ylamino)-N-(1-cyclopentylazetidin-3-yl)-2-fluoro-5-methoxybenzamide] |
| ≤ 2 | COc1cc(C(=O)NC2CCN(C)CC2)ccc1Nc1ncc2c(n1)N(C1CC[C@@H](C)C1)CC(F)(F)C(=O)N2C (stereo partly drawn) [Compound 83, 4-(7,7-difluoro-5-methyl-9-((3R)-3-methylcyclopentyl)-6-oxo-6,7,8,9-tetrahydro-5H-pyrimido[4,5-b][1,4]diazepin-2-ylamino)-3-methoxy-N-(1-methylpiperidin-4-yl)benzamide] |
| > 2 | CN1C(=O)C(F)(F)CN(C2CCCC2)c2nc(Nc3ccc4c(c3)NC(=O)C4)ncc21 [Compound 19, 9-cyclopentyl-7,7-difluoro-5-methyl-2-(2-oxoindolin-6-ylamino)-8,9-dihydro-5H-pyrimido[4,5-b][1,4]diazepin-6(7H)-one] |
| ≤ 2 | COc1cc(C(=O)NC2CC2)ccc1Nc1ncc2c(n1)N(C1CCCCC1)CC(F)(F)C(=O)N2C [Compound 76, 4-(9-cyclohexyl-7,7-difluoro-5-methyl-6-oxo-6,7,8,9-tetrahydro-5H-pyrimido[4,5-b][1,4]diazepin-2-ylamino)-N-cyclopropyl-3-methoxybenzamide] |
| ≤ 2 | COc1cc(C(=O)NC2CCN(C)CC2)ccc1Nc1ncc2c(n1)N(C1CCCCC1)CC(C)(F)C(=O)N2C (stereo not drawn) [Compound 89, 4-(9-Cyclohexyl-7-fluoro-5,7-dimethyl-6-oxo-6,7,8,9-tetrahydro-5H-pyrimido[4,5-b][1,4]diazepin-2-ylamino)-3-methoxy-N-(1-methylpiperidin-4-yl)benzamide] |
| > 2 | COc1cc(C(=O)NC2CCN(C)CC2)ccc1Nc1ncc2c(n1)N(C1CCCC1)CC(F)(F)CN2C [Compound 138, 4-(9-cyclopentyl-7,7-difluoro-5-methyl-6,7,8,9-tetrahydro-5H-pyrimido[4,5-b][1,4]diazepin-2-ylamino)-3-methoxy-N-(1-methylpiperidin-4-yl)benzamide] |
| > 2 | COc1c(Nc2ncc3c(n2)N(C2CCCC2)CC(F)(F)C(=O)N3C)ccc(C(=O)O)c1F [Compound 123, 4-(9-Cyclopentyl-7,7-difluoro-5-methyl-6-oxo-6,7,8,9-tetrahydro-5H-pyrimido[4,5-b][1,4]diazepin-2-ylamino)-2-fluoro-3-methoxybenzoic acid] |
| > 2 | COc1cc(C(=O)NCCCN(C)C)ccc1Nc1ncc2c(n1)N(C1CCCCC1)CC(F)(F)C(=O)N2C [Compound 54, 4-(9-cyclohexyl-7,7-difluoro-5-methyl-6-oxo-6,7,8,9-tetrahydro-5H-pyrimido[4,5-b][1,4]diazepin-2-ylamino)-N-(3-(dimethylamino)propyl)-3-methoxybenzamide] |
| ≤ 2 | CCN1CCC(NC(=O)c2ccc(Nc3ncc4c(n3)N(C3CCCCC3)CC(F)(F)C(=O)N4C)c(OC)c2)CC1 [Compound 36, 4-(9-cyclohexyl-7,7-difluoro-5-methyl-6-oxo-6,7,8,9-tetrahydro-5H-pyrimido[4,5-b][1,4]diazepin-2-ylamino)-N-(1-ethylpiperidin-4-yl)-3-methoxybenzamide] |
| > 2 | CCN1CC(NC(=O)c2ccc(Nc3ncc4c(n3)N(C3CCCCC3)CC(F)(F)C(=O)N4C)c(OC)c2)C1 [Compound 126, 4-(9-cyclohexyl-7,7-difluoro-5-methyl-6-oxo-6,7,8,9-tetrahydro-5H-pyrimido[4,5-b][1,4]diazepin-2-ylamino)-N-(1-ethylazetidin-3-yl)-3-methoxybenzamide] |
| > 2 | COc1cc(C(=O)N[C@H]2CCCNC2)ccc1Nc1ncc2c(n1)N(C1CCCCC1)CC(F)(F)C(=O)N2C [Compound 37, (S)-4-(9-cyclohexyl-7,7-difluoro-5-methyl-6-oxo-6,7,8,9-tetrahydro-5H-pyrimido[4,5-b][1,4]diazepin-2-ylamino)-3-methoxy-N-(piperidin-3-yl)benzamide] |
| ≤ 2 | COc1cc(C(=O)NC2CCN(C)CC2)ccc1Nc1ncc2c(n1)N(C1CCCC1)CC(C)(F)C(=O)N2C (stereo not drawn) [Compound 87, 4-(9-cyclopentyl-7-fluoro-5,7-dimethyl-6-oxo-6,7,8,9-tetrahydro-5H-pyrimido[4,5-b][1,4]diazepin-2-ylamino)-3-methoxy-N-(1-methylpiperidin-4-yl)benzamide] |
| ≤ 2 | COc1cc(C(=O)NC2CCN(C)CC2)ccc1Nc1ncc2c(n1)N(C1CCCCC1)CC(F)(F)C(=O)N2C [Compound 33, 4-(9-cyclohexyl-7,7-difluoro-5-methyl-6-oxo-6,7,8,9-tetrahydro-5H-pyrimido[4,5-b][1,4]diazepin-2-ylamino)-3-methoxy-N-(1-methylpiperidin-4-yl)benzamide] |
| > 2 | Cc1cc(C(=O)NC2CCN(C)CC2)ccc1Nc1ncc2c(n1)N(C1CCCC1)CC(F)(F)C(=O)N2C [Compound 26, 4-(9-Cyclopentyl-7,7-difluoro-5-methyl-6-oxo-6,7,8,9-tetrahydro-5H-pyrimido[4,5-b][1,4]diazepin-2-ylamino)-3-methyl-N-(1-methylpiperidin-4-yl)benzamide] |
| > 2 | C=C[C@@]1(F)CN(C2CCCC2)c2nc(Nc3ccc(C(=O)NC4CCN(CCO)CC4)cc3OC)ncc2N(C)C1=O [Compound 106, (R)-4-(9-cyclopentyl-7-fluoro-5-methyl-6-oxo-7-vinyl-6,7,8,9-tetrahydro-5H-pyrimido[4,5-b][1,4]diazepin-2-ylamino)-N-(1-(2-hydroxyethyl)piperidin-4-yl)-3-methoxybenzamide] |
| > 2 | COc1cc(C(=O)N2CCN(CC3CC3)CC2)ccc1Nc1ncc2c(n1)N(C1CCCC1)CC(F)(F)C(=O)N2C [Compound 134, 9-cyclopentyl-2-(4-(4-(cyclopropylmethyl)piperazine-1-carbonyl)-2-methoxyphenylamino)-7,7-difluoro-5-methyl-8,9-dihydro-5H-pyrimido[4,5-b][1,4]diazepin-6(7H)-one] |
| ≤ 2 | COc1cc(C(=O)NC2CCOCC2)ccc1Nc1ncc2c(n1)N(C1CCCCC1)CC(F)(F)C(=O)N2C [Compound 66, 4-(9-cyclohexyl-7,7-difluoro-5-methyl-6-oxo-6,7,8,9-tetrahydro-5H-pyrimido[4,5-b][1,4]diazepin-2-ylamino)-3-methoxy-N-(tetrahydro-2H-pyran-4-yl)benzamide] |
| > 2 | CN1C(=O)C(F)(F)CN(C2CCCC2)c2nc(Nc3cccc4c3OC(F)(F)O4)ncc21 [Compound 136, 9-cyclopentyl-2-(2,2-difluorobenzo[d][1,3]dioxol-4-ylamino)-7,7-difluoro-5-methyl-8,9-dihydro-5H-pyrimido[4,5-b][1,4]diazepin-6(7H)-one] |
| ≤ 2 | COc1cc(C(=O)NC2CCCN(C)CC2)ccc1Nc1ncc2c(n1)N(C1CCCC1)CC(F)(F)C(=O)N2C (stereo not drawn) [Compound 15, 4-(9-cyclopentyl-7,7-difluoro-5-methyl-6-oxo-6,7,8,9-tetrahydro-5H-pyrimido[4,5-b][1,4]diazepin-2-ylamino)-3-methoxy-N-(1-methylazepan-4-yl)benzamide] |
| > 2 | CCC1(F)CN(C2CCCCC2)c2nc(Nc3ccc(C(=O)NC4CCN(C)CC4)cc3OC)ncc2N(C)C1=O (stereo not drawn) [Compound 96, 4-(9-Cyclohexyl-7-ethyl-7-fluoro-5-methyl-6-oxo-6,7,8,9-tetrahydro-5H-pyrimido[4,5-b][1,4]diazepin-2-ylamino)-3-methoxy-N-(1-methylpiperidin-4-yl)benzamide] |

| Structure (SMILES) | IC50 [nM] |
| --- | --- |
| COc1cc(C(=O)N[C@H]2CN3CCC2CC3)ccc1Nc1ncc2c(n1)N(C1CCCCC1)CC(F)(F)C(=O)N2C [Compound 45, (R)-4-(9-cyclohexyl-7,7-difluoro-5-methyl-6-oxo-6,7,8,9-tetrahydro-5H-pyrimido[4,5-b][1,4]diazepin-2-ylamino)-3-methoxy-N-(quinuclidin-3-yl)benzamide] | ≤ 2 |
